Test results taken from publication PMC6491995, “Preclinical evaluation of the first intravenous small molecule MDM2 antagonist alone and in combination with temozolomide in neuroblastoma” (International Journal of Cancer, 2019).

What was measured:
NB1691 cells = system: NB1691 cells; set-up: method as in PMID 25844600; conditions: 72 h, read-out: 72 h GI50 concentration; cited from earlier work
[1] = system: NB1691-Luc orthotopic tumours; test: Efficacy study in NB1691-Luc orthotopic tumour bearing mice; assay type: in vivo; conditions: for Reduction in bioluminescence vs. control: RO6839921 eq. 100 mg/kg IV weekly, temozolomide 34 mg/kg PO daily x5; for %ILS (Median): increase in lifespan vs. control based on median survival
Protocol: (§1) All in vivo experiments were approved by the licencing and ethical committee of the IRCCS San Martino‐IST (Genoa, Italy), the Italian Ministry of Health, Newcastle University and the UK Government Home Office. Orthotopic murine SHSY5Y‐Luc or NB1691‐Luc models were established and monitored using bioluminescence (BLI) IVIS imaging, as previously described.18, 19, 20 RO6839921 (equivalent to 100 mg/kg of active idasanutlin) and temozolomide (34 mg/kg equivalent to 100 mg/m^2 were given by IV tail vein injection and oral gavage, respectively. Tumour bearing mice were randomised into n = 3/group and n = 8/group for pharmacokinetic (PK)/pharmacodynamic (PD) studies and efficacy studies, respectively, and samples taken at the indicated time points (Supporting Information Fig. S1). To minimise esterase activity, 0.2% dichlorvos (Sigma‐Aldrich) was added to blood samples. […] Animals were monitored 2–3 times weekly and euthanized humanely just before showing signs of illness/suffering such as abdominal dilatation, paraplegia, dehydration, or severe weight loss. Percentage increase in lifespan (%ILS) was calculated based on both median and mean survival to humane endpoint, as previously described.5 For more detailed procedures see Supporting Information.
(§2) The efficacy of RO6839921 alone and in combination with temozolomide was assessed in SHSY5Y‐Luc and NB1691‐Luc orthotopic tumour bearing mice. The intermittent schedule used is equivalent to one cycle of treatment over a 3 week period (Fig. S1, Supporting Information). Mice were randomised into control, RO6839921 (once per week for 3 weeks), temozolomide (daily x5/3 weeks; consistent with the currently used clinical dosing schedule in the BEACON Trial (NCT02308527)), or RO6839921 and temozolomide treatment groups (n = 8/group; Fig. S1, Supporting Information).
(§3) Supplementary Information
(§4) Detailed methods of orthotopic in vivo experiments
(§5) Five week old female athymic Nude-Foxn1nu mice (Envigo, Bresso, Italy) were anesthetized, subjected to a laparotomy and orthotopically injected with 1×10^6 SHSY5Y-Luc or NB1691-Luc neuroblastoma cells into the capsule of the left adrenal gland, as previously described (1-3). […]
(§6) using BLI IVIS imaging for tumour development (~2-3 weeks) prior to commencement of treatment. […]
(§7) 10min and stored at -80°C. For efficacy studies, SHSY5Y-Luc or NB1691-Luc tumour bearing mice were randomized […]
(§8) temozolomide (34mg/kg, daily x5 only by oral gavage) or RO6839921 and temozolomide treatment groups with 8 mice per group (Figure S1), and monitored by IVIS imaging for tumour growth. Baseline bioluminescence were measured prior to initiation of treatment on Day 1, and then during treatment on Days 8 (BLI1) and 15 (BLI2) (Figure S1). Twenty-four hours after the end of treatment, 3 mice per group were sacrificed for PK and PD analyses, and the remaining 5 mice per group were monitored for survival to humane endpoint (Figure S1). Animals were monitored 2-3 times weekly

[2] = system: NB1691-Luc orthotopic tumours; test: IHC analysis of NB1691-Luc orthotopic tumours after one treatment cycle; assay type: in vivo, mice; conditions: 24 h after one treatment cycle, n = 3
Protocol: Tumours were disaggregated in Phosphosafe buffer (Merck Millipore) using the Medimachine with Medicons inserts (BD Biosciences, Oxford, UK) and Western analysis carried out as previously described.21 Human MIC‐1 assays were performed according to manufacturer's protocols (R&D Systems). IHC was performed using validated protocols and the Ventana Benchmark Ultra automated system (Ventana Medical Systems, Inc, Tucson, AZ, USA) in the Cellular Pathology Department, Royal Victoria Infirmary, Newcastle upon Tyne, UK.
Figure 3 MIC‐1 levels and IHC analysis of Ki67, p53, p21, and cleaved caspase 3 (CC3) in orthotopic tumours in response to one cycle of RO6839921 and temozolomide alone and in combination. […] Statistically significant differences vs. control were determined by unpaired t‐tests. […] Graphical representation of quantification of % positive Ki67, p53, p21, and CC3 staining in (d) NB1691‐Luc and (e) SHSY5Y‐Luc orthotopic tumours using Imagescope software and algorithms (Leica Biosystems, Newcastle upon Tyne, UK) and/or scored for positive immunostaining by a consultant pathologist (KW). n = 3 mice per group. […] Statistically significant differences were determined by one‐way ANOVA with Bonferroni post‐hoc tests and paired testing vs. control. p ≤ 0.05 (*); 0.01 (**); 0.001 (***); 0.0001 (****). […]

[3] = set-up: method as in PMID 16047361, PMID 9744506, PMID 9738573, PMID 17114659; conditions: clinical data in children; cited from earlier work
[4] = system: SHSY5Y-Luc orthotopic tumours; test: Efficacy study in SHSY5Y-Luc orthotopic tumour bearing mice; assay type: in vivo; conditions: for Reduction in bioluminescence vs. control: RO6839921 eq. 100 mg/kg IV weekly, temozolomide 34 mg/kg PO daily x5; for %ILS (Median): increase in lifespan vs. control based on median survival
Protocol: as §1, §2, §3, §4, §5, §6, §7, §8

[5] = PK of orally formulated idasanutlin in subcutaneous NGP neuroblastoma xenograft model; assay type: in vivo; conditions: single oral dose equivalent to 100 mg/kg active idasanutlin, subcutaneous NGP xenograft mice, preliminary studies
Protocol: We previously conducted similar PK/PD analyses of orally formulated idasanutlin in preliminary studies of a subcutaneous NGP neuroblastoma xenograft model after a single oral dose equivalent to 100 mg/kg of active idasanutlin (Fig. S8, Supporting Information).
Figure S8. PK and PD analysis of orally formulated idasanutlin in a TP53 wt subcutaneous xenograft model of neuroblastoma. Female CD1 nude mice were implanted subcutaneously with […] TP53 wt, MDM2 and MYCN amplified NGP neuroblastoma cells. A) PK analysis of idasanutlin levels using LC-MS in plasma samples harvested at the indicated time points from tumour bearing mice treated with a single dose equivalent to 100mg/kg of active idasanutlin by oral gavage. PD profiling for B) induction of the p53 pathway using Western analysis of p53, p21, and MDM2 levels in tumours, and C) MIC-1 levels in plasma harvested at the indicated time points from subcutaneous NGP tumour bearing mice treated with a single dose of idasanutlin by oral gavage. n=3 mice per time point. CTR, control.
(1 picture or pasted object on this page, not shown here)

[6] = after 1 week of treatment (Day 8/BLI1)
[7] = after 2 weeks of treatment (Day 15/BLI2)
[8] = increase in lifespan vs. control based on mean survival
[9] = survival to humane endpoint, n = 5/group, one treatment cycle

## Cn1nnc2c(C(N)=O)ncn2c1=O [temozolomide]
NB1691 cells
  GI50: 868 µM
[1]; [6]
  Reduction in bioluminescence vs. control: 35%
[1]; [7]
  Reduction in bioluminescence vs. control: 24%
[1]; [8]
  %ILS (Mean): 16%
[1]
  %ILS (Median): 6%
[1]; listed as Temozolomide
  %ILS (Median): 6%
[1]; [9]
  Mean Survival: 41 days
  Median Survival: 37 days
[2]
  Ki67 positive cells vs. control (IHC): did not reduce
[3]
  Main toxicities in children: thrombocytopenia and neutropenia
[4]; [6]
  Reduction in bioluminescence vs. control: 36%
[4]; [7]
  Reduction in bioluminescence vs. control: 39%
[4]; [8]
  %ILS (Mean): 11%
[4]
  %ILS (Median): 14%
[4]; listed as Temozolomide
  %ILS (Median): 14%
[4]; [9]
  Mean Survival: 49 days
  Median Survival: 49 days

## COc1cc(C(=O)O)ccc1NC(=O)[C@@H]1N[C@@H](CC(C)(C)C)[C@](C#N)(c2ccc(Cl)cc2F)[C@H]1c1cccc(Cl)c1F [idasanutlin, Idasanutlin]
NB1691 cells
  GI50: 0.041 µM
[5]
  Plasma concentration of active idasanutlin: ~5000 ng/mL
